Test results: publication PMC5651845, “A New Generation of Arachidonic Acid Analogues as Potential Neurological Agent Targeting Cytosolic Phospholipase A2” (Scientific Reports, 2017)

Legend:
[1] = biological target: T1, sPLA2, human recombinant type V (Homo sapiens, UniProt P39877); assay: EnzChek phospholipase A2 fluorogenic assay (selectivity) with sPLA2; type: biochemical; conditions: 10 μM, relative to DMSO control
T1 construct: purchased Cayman Chemical 10009563
T1 sequence (P39877 21-138): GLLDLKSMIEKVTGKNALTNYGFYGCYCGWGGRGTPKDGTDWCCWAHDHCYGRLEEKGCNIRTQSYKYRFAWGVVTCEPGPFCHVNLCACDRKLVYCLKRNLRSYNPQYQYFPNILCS
Procedure: To further explore their selectivity towards cPLA2, 10 μM of 2g and 2i were evaluated for their inhibition against recombinant sPLA2 using the fluorogenic PLA2 assay (Fig. 3C).
The assay was conducted as described above. Instead of adding cPLA2, it was replaced by sPLA2. 48 μL of 1X phospholipase A2 reaction buffer was added into each well of a 96-wells plate. This was followed by addition of 1 μL of sPLA2, human recombinant type V (10009563, Cayman Chemical) and 1 μL of 1 mM of the respective compound or thioetheramide-PC (62750, Cayman Chemical) dissolved in DMSO. The final concentration of the test compound achieved is 10 μM. The reaction was initiated by adding 50 μL of the substrate solution and incubating at room temperature for 1 h. Fluorescence was measured using a Varioskan plate reader by exciting at 485 nm, while fluorescence emission was detected at 515 nm. Positive control was performed when 1 μL of test compound was replaced by vehicle DMSO. % activity was expressed as the mean value of duplicate wells from four experiments. % activity was calculated by the following formula:2 %activity=fluorescenceoftestedwell−background/fluorescenceofpostivecontrol−background

BV-2 cells = assay: MTS cell proliferation assay on BV-2 cells; type: cell-based, murine; conditions: 10 μM, 48 h and 72 h, vs vehicle control
Procedure: To explore whether the inhibitors are cytotoxic, MTS assay were conducted on BV-2 cells, a murine microglial cell line derived from post-natal mouse cerebella, and HEK293T cells that are derived from human embryonic kidney. Both cell types were treated with 10 μM of 1a, 2g and 2i for 48 h and 72 h (Fig. 3A,B). Dimethyl sulfoxide (DMSO) vehicle control was also included as the compounds were dissolved in DMSO.
Cells were plated on a 96-wells plate and grown for 24 h to a density of 8000 cells per well for both HEK293T and BV-2 cells. Cells were cultured at 37 °C under a 5% CO2 environment in 100 μL of culture medium. Thereafter, the compound of interest dissolved in culture medium at a concentration of 10 μM was replaced into each well. DMSO was added as vehicle in the control group. 3 biological replicates were performed. The plates were then incubated at 37 °C with 5% CO2 for 48 h and 72 h. At each individual time point, 20 μL of CellTiter 96® AQueous One Solution (MTS reagent) was added into each well and re-incubated at 37 °C with 5% CO2 without light for 3 h. Colorimetric readings were taken using a Varioskan plate reader at 490 nm and analyzed. Three independent biological repeats with four technical replicates were performed.

recombinant cPLA2 = biological target: T2, recombinant cPLA2 (Homo sapiens, UniProt P47712); assay: EnzChek phospholipase A2 fluorogenic assay (% activity) at 10 μM; type: biochemical; conditions: 10 μM compound
T2 construct: purchased US Biological P4074-03R
T2 sequence (P47712 1-749): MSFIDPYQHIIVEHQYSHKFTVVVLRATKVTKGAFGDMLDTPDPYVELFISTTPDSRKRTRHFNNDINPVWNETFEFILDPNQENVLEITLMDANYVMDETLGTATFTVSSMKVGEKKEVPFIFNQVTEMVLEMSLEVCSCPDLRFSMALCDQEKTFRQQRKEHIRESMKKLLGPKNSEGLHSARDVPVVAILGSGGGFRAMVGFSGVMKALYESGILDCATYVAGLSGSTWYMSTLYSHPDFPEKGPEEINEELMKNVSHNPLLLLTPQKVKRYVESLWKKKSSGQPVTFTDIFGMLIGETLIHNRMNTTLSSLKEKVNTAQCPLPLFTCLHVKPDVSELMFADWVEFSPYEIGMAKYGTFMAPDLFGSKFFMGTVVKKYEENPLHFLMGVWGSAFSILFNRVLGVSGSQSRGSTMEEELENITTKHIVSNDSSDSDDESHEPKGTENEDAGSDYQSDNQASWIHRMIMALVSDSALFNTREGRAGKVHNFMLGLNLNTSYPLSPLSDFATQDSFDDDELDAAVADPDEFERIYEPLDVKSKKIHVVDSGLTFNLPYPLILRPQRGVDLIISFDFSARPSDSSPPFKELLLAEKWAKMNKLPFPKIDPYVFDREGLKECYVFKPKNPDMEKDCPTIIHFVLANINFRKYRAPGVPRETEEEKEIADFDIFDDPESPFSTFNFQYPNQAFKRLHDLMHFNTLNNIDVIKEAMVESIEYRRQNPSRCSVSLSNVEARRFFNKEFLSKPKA
Procedure: The compounds were evaluated with a fluorogenic PLA2 assay kit (EnzChek® Phospholipase A2 Assay Kit, Catalog No: E10217) at a standard 10 μM concentration. Potential inhibitors were determined by their ability to lower cPLA2 activity to a greater extent than 1a.
The assay was conducted according to the manufacturer’s instruction (E10217, Molecular Probes) with slight modification. Briefly, substrate solution was separately prepared by mixing 5 μL of DOPG, 5 μL of DOPC and 5 μL of substrate respectively in 1.5 mL of 1X phospholipase A2 reaction buffer. The mixture was vortexed vigorously for 3 min before allowing to stand at room temperature for 1 h. 48 μL of 1X phospholipase A2 reaction buffer were added into each well of a 96-wells plate. This was followed by addition of 1 μL of recombinant cPLA2 (P4074-03R, US Biological) and 1 μL of 1 mM of the respective compound dissolved in DMSO. The final concentration of the test compound achieved is 10 μM. The reaction was initiated by adding 50 μL of the substrate solution and incubating at room temperature for 1 h. Fluorescence was measured using a Varioskan plate reader (Thermo Scientific, MA, USA) by exciting at 485 nm, while fluorescence emission was detected at 515 nm. Positive control was performed when 1 μL of test compound was replaced by vehicle DMSO. % activity was expressed as the mean value of duplicate wells from three experiments. % activity was calculated by the following formula1 %activity=fluorescenceoftestedwell−background/fluorescenceofpostivecontrol−background

**Q.** With CCCCC/C=C\C/C=C\C/C=C\C/C=C\CCCCC(=O)Nc1cccc(C(=O)O)c1 [2i] as the compound, how does the sPLA2 activity [1] read?
**A.** did not provide a significant change in sPLA2 activity

**Q.** What about the “cytotoxicity (MTS) on BV-2 cells” value (BV-2 cells) of the same compound?
**A.** no significant toxic effects

**Q.** What about the inhibition at 10 µM (recombinant cPLA2) of the same compound?
**A.** 88.5%

**Q.** And the remaining activity at 10 µM (recombinant cPLA2; 1 h, room temperature)?
**A.** 11.5 ± 1%
